These results are taken from patent US12410164B2, “Heterocyclic compounds and medical use thereof” (FONDAZIONE TELETHON, priority 2018, dated 2025).

The target in the assay is F508del-CFTR (Homo sapiens, UniProt P13569, DEL508-508). Kind of assay: HS-YFP kinetic fluorescence (iodide quenching rate) assay in CFBE41o− cells. It counts as cell-based. Details: expressed in transfected cells; host or cells: CFBE41o- cells with expression of F508del-CFTR and HS-YFP (generated as in Sondo et al. 2011). As to conditions: for AI (%) additivity index: Table 1, HS-YFP assay; for AI (%) additivity index / AI additivity index: compound at 10 μM plus VX-809, (QRTOT − QRVX)/QRVX; for structure-activity comparison of corrector potency/activity: relative to the analogue; for AI additivity index: Table 2. As to the method:
CFBE41o- cells, with expression of F508del-CFTR and halogen-sensitive fluorescent protein, were generated as previously described (Sondo E, et al. Am J Physiol. 2011, 301, […]-[…]). For the test, the cells were seeded in 96-well microplates using a culture medium consisting of DMEM and Ham's F12 (1:1) supplemented with 10% foetal bovine serum. After 24 hours from seeding, the cells were treated for another 24 hours with the test compounds dissolved in the culture medium at the desired concentrations. As a negative control, the solvent of the compounds (dimethyl sulfoxide, DMSO) dissolved in the medium with the same dilution ratio (final percentage of DMSO:0.1-0.2%) was used. As a positive control, the corrector VX-809 (Selleck Chemicals, […]) was used at a concentration of 1 μM. After treatment, the medium with the compounds was removed and the cells were stimulated with forskolin (Sigma-Aldrich, F6886) 20 μM plus genistein (Sigma-Aldrich, G6649) 50 μM (in 60 μl of PBS saline) to maximally activate the CFTR channels present in the membrane. In a microplate reader (FLUOstar-Omega, BMG) the fluorescence of the cells in each well was read for 14 seconds, with an injection of 165 μl of a iodide-enriched saline (modified PBS where NaCl, 137 mM, has been replaced with the same concentration of NaI). The iodide transport activity in each well was evaluated by subtraction of the background fluorescence (measured in a well without cells), subsequent normalization with respect to the initial fluorescence and finally by interpolation of the fluorescence quenching phase with an exponential function that allows the derivation of the maximum slope (quenching rate, QR). The activity of the synthesized compounds was initially evaluated on the CFBE41o- cell line with expression of the mutated F508del-CFTR protein described above (Sondo E, et al. Am J Physiol. 2011, 301, […]-[…]). For this purpose, a functional assay based on the fluorescent YFP protein sensitive to halides, HS-YFP, was used (Galietta L J, et al. J Biol Chem. 2001, 276, 19723-19728). The fluorescence of the HS-YFP protein is turned off by iodide. Therefore, if exposed to a solution containing iodide, cells with HS-YFP expression show a quenching speed of the fluorescence which depends on the presence and activity of anionic channels. Under control conditions, the mutated CFTR protein presents a serious defect of stability and maturation, so it remains trapped in the endoplasmic reticulum not reaching the cell surface in enough quantity. In the HS-YFP-based assay, this defect results in a low anion transport capacity and therefore in a low quenching rate (QR). Treatment for a prolonged time (e.g. 24 hours) with a corrector determines an improvement in protein maturation with an increase in the number of CFTR channels present in the membrane and therefore an increase in the flux of iodide and QR. In a first phase, the authors screened about 200 heterocyclic molecules with various nitrogenated tricyclic scaffolds. Conditions previously described have been used for screening (Sondo E, et al. Am J Physiol. 2011, 301, […]-[…]) and reported herein in the Materials and Methods section. A threshold equal to the average value plus three times the standard deviation of the QR of wells without compounds (only DMSO in the culture medium) was used as a criterion for the selection of active compounds.

F508del-CFTR, sequence (P13569 with tags, fused parts or gaps DEL508-508): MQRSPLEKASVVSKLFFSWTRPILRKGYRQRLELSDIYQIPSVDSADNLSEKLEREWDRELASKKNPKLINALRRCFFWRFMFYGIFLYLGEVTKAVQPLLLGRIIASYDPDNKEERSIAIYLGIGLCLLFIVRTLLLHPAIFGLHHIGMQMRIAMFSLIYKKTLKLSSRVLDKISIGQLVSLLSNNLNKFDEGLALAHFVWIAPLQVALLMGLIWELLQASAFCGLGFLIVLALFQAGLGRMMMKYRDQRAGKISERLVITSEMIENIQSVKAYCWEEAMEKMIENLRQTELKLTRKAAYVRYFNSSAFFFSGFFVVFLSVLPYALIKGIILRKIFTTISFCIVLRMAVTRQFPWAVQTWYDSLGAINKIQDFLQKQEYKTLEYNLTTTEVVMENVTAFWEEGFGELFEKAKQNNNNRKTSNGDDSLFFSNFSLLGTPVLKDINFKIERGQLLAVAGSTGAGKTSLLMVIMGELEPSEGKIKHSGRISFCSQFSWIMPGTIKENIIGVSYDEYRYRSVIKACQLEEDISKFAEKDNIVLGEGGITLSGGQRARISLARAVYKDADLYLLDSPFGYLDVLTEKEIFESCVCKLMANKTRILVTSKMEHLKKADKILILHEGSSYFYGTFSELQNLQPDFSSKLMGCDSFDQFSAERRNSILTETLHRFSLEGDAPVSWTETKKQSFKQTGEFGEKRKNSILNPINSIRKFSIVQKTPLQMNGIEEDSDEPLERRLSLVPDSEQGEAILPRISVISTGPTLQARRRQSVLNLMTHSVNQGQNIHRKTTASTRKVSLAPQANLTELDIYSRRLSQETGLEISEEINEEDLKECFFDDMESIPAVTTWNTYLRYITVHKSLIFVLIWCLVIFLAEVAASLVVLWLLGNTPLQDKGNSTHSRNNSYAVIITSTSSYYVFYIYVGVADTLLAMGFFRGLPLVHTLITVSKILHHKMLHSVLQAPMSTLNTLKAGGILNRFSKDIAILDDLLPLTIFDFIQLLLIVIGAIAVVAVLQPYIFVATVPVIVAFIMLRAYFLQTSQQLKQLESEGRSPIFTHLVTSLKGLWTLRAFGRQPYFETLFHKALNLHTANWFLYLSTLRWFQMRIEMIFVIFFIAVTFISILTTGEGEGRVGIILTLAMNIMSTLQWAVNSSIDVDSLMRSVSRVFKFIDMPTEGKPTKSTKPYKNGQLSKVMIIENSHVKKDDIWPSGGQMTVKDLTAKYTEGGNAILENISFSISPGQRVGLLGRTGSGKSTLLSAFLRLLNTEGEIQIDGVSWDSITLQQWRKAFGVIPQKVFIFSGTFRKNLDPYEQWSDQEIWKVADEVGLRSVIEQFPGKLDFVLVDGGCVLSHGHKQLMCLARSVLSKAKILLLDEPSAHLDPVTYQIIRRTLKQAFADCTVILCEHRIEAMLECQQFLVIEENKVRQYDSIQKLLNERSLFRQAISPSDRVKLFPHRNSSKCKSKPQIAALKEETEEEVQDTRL

Turning to `CCOC(=O)c1c(Br)c2c(n1Cc1ccc(C)cc1)-c1[nH]c(=O)c(S(=O)(=O)c3ccc(C)cc3)cc1CC2` [PP035, Ethyl 3-bromo-7-(4-methylbenzene-1-sulfonyl)-1-[(4-methylphenyl)methyl]-8-oxo-4,5,8,9-tetrahydro-1H-pyrrolo[3,2-h]quinoline-2-carboxylate], the “AI (%) additivity index” value is 56%. On to `CCOC(=O)c1c(Br)c2c(n1Cc1ccc(C)cc1)-c1[nH]c(=O)c(S(C)(=O)=O)cc1CC2` [PP036, Ethyl 3-bromo-7-(metansulfonyl)-1-[(4-methylphenyl)methyl]-8-oxo-4,5,8,9-tetrahydro-1H-pyrrolo[3,2-h]quinoline-2-carboxylate], for which the “AI (%) additivity index” value is listed as 23%. `CCOC(=O)c1c(Br)c2c(n1Cc1ccc(C)c(C)c1)-c1[nH]c(=O)c(S(=O)(=O)c3ccccc3)cc1CC2` [PP037, Ethyl 7-(benzenesulfonyl)-3-bromo-1-[(3,4-dimethylphenyl)methyl]-8-oxo-4,5,8,9-tetrahydro-1H-pyrrolo[3,2-h]quinoline-2-carboxylate]: the “AI (%) additivity index” value is on record as 335% and the “structure-activity comparison of corrector potency/activity” value was “increase in potency compared to PP008”.

Regarding `CCOC(=O)c1cc2c(n1Cc1ccc(C)cc1)-c1[nH]c(=O)c(S(=O)(=O)c3ccccc3)cc1CCC2` [PP048, Ethyl 8-(benzenesulfonyl)-1-[(4-methylphenyl)methyl]-9-oxo-1,4,5,6,9,10-hexahydropyrrolo[3′,2′:6,7]cyclohepta[1,2-b]pyridine-2-carboxylate], the AI additivity index was 22%. As for `CCOC(=O)c1c(Br)c2c(n1Cc1ccc(C)cc1)-c1[nH]c(=O)c(S(=O)(=O)c3ccccc3)cc1CCC2` [PP056, Ethyl 8-(benzenesulfonyl)-3-bromo-1-[(4-methylphenyl)methyl]-9-oxo-1,4,5,6,9,10-hexahydropyrrolo[3′,2′:6,7]cyclohepta[1,2-b]pyridine-2-carboxylate], the AI additivity index is listed as 60% and the “structure-activity comparison of corrector potency/activity” value is “more potent than the non-halogenated analogues”. As to `CCOC(=O)c1cc2c(n1Cc1ccc(Br)cc1)-c1[nH]c(=O)c(S(=O)(=O)c3ccccc3)cc1CC2` [PP060, Ethyl 7-(benzenesulfonyl)-1-[(4-bromophenyl)methyl]-8-oxo-4,5,8,9-tetrahydro-1H-pyrrolo[3,2-h]quinoline-2-carboxylate], the “AI (%) additivity index” value was 148%.

For `CCOC(=O)c1cc2c(n1Cc1ccc(I)cc1)-c1[nH]c(=O)c(S(=O)(=O)c3ccccc3)cc1CC2` [PP062, Ethyl 7-(benzenesulfonyl)-1-[(4-iodophenyl)methyl]-8-oxo-4,5,8,9-tetrahydro-1H-pyrrolo[3,2-h]quinoline-2-carboxylate], the “AI (%) additivity index” value is given as 95%.

For `CCOC(=O)c1c(Br)c2c(n1Cc1ccc(I)cc1)-c1[nH]c(=O)c(S(=O)(=O)c3ccccc3)cc1CC2` [PP063, Ethyl 7-(benzenesulfonyl)-3-bromo-1-[(4-iodophenyl)methyl]-8-oxo-4,5,8,9-tetrahydro-1H-pyrrolo[3,2-h]quinoline-2-carboxylate], the “AI (%) additivity index” value came to 146%.

Take `CCOC(=O)c1cc2c(n1CC1CC1)-c1[nH]c(=O)c(S(=O)(=O)c3ccccc3)cc1CC2` [PP064, Ethyl 7-(benzenesulfonyl)-1-(cyclopropylmethyl)-8-oxo-4,5,8,9-tetrahydro-1H-pyrrolo[3,2-h]quinoline-2-carboxylate]: the “AI (%) additivity index” value was determined as 235%.

With `CCOC(=O)c1c(Br)c2c(n1CC1CC1)-c1[nH]c(=O)c(S(=O)(=O)c3ccccc3)cc1CC2` [PP065, Ethyl 7-(benzenesulfonyl)-3-bromo-1-(cyclopropylmethyl)-8-oxo-4,5,8,9-tetrahydro-1H-pyrrolo[3,2-h]quinoline-2-carboxylate], the “AI (%) additivity index” value worked out at 284%. With `CCOC(=O)c1cc2c(n1Cc1ccc(C)nc1)-c1[nH]c(=O)c(S(=O)(=O)c3ccccc3)cc1CC2` [PP066, Ethyl 7-(benzenesulfonyl)-1-[(6-methylpyridin-3-yl)methyl]-8-oxo-4,5,8,9-tetrahydro-1H-pyrrolo[3,2-h]quinoline-2-carboxylate], the “AI (%) additivity index” value is 62%. Turning to `CCOC(=O)c1c(Br)c2c(n1Cc1ccc(C)nc1)-c1[nH]c(=O)c(S(=O)(=O)c3ccccc3)cc1CC2` [PP067, Ethyl 7-(benzenesulfonyl)-3-bromo-1-[(6-methylpyridin-3-yl)methyl]-8-oxo-4,5,8,9-tetrahydro-1H-pyrrolo[3,2-h]quinoline-2-carboxylate], the “AI (%) additivity index” value came out at 81%.

Turning to `CCOC(=O)c1cc2c(n1Cc1c(C)cc(C)cc1C)-c1[nH]c(=O)c(S(=O)(=O)c3ccccc3)cc1CC2` [PP068, Ethyl 7-(benzenesulfonyl)-8-oxo-1-[(2,4,6-trimethylphenyl)methyl]-4,5,8,9-tetrahydro-1H-pyrrolo[3,2-h]quinoline-2-carboxylate], the “AI (%) additivity index” value is recorded as 116%. As for `CCOC(=O)c1c(Br)c2c(n1Cc1c(C)cc(C)cc1C)-c1[nH]c(=O)c(S(=O)(=O)c3ccccc3)cc1CC2` [PP069, Ethyl 7-(benzenesulfonyl)-3-bromo-8-oxo-1-[(2,4,6-trimethylphenyl)methyl]-4,5,8,9-tetrahydro-1H-pyrrolo[3,2-h]quinoline-2-carboxylate], the “AI (%) additivity index” value turned out to be 175%. Consider `CCOC(=O)c1cc2c(n1Cc1ccc(C(F)(F)F)cc1)-c1[nH]c(=O)c(S(=O)(=O)c3ccccc3)cc1CC2` [PP070, Ethyl 7-(benzenesulfonyl)-8-oxo-1-{[4-(trifluoromethyl)phenyl]methyl}-4,5,8,9-tetrahydro-1H-pyrrolo[3,2-h]quinoline-2-carboxylate], for which the “AI (%) additivity index” value came to 101%. Regarding `CCOC(=O)c1c(Br)c2c(n1Cc1ccc(C(F)(F)F)cc1)-c1[nH]c(=O)c(S(=O)(=O)c3ccccc3)cc1CC2` [PP071, Ethyl 7-(benzenesulfonyl)-3-bromo-8-oxo-1-{[4-(trifluoromethyl)phenyl]methyl}-4,5,8,9-tetrahydro-1H-pyrrolo[3,2-h]quinoline-2-carboxylate], the “AI (%) additivity index” value amounted to 35%. Take `CCOC(=O)c1cc2c(n1Cc1ccc(F)cc1)-c1[nH]c(=O)c(S(=O)(=O)c3ccccc3)cc1CC2` [PP072, Ethyl 7-(benzenesulfonyl)-1-[(4-fluorophenyl)methyl]-8-oxo-4,5,8,9-tetrahydro-1H-pyrrolo[3,2-h]quinoline-2-carboxylate]: the “AI (%) additivity index” value was determined as 420%. As to `CCOC(=O)c1c(Br)c2c(n1Cc1ccc(F)cc1)-c1[nH]c(=O)c(S(=O)(=O)c3ccccc3)cc1CC2` [PP073, Ethyl 7-(benzenesulfonyl)-3-bromo-1-[(4-fluorophenyl)methyl]-8-oxo-4,5,8,9-tetrahydro-1H-pyrrolo[3,2-h]quinoline-2-carboxylate], the “AI (%) additivity index” value is reported as 442%. Still for that read-out and setting: with `CCOC(=O)c1cc2c(n1CCCN(C)C)-c1[nH]c(=O)c(S(=O)(=O)c3ccccc3)cc1CC2` [PP075, Ethyl 7-(benzenesulfonyl)-1-[3-(dimethylamino)propyl]-8-oxo-4,5,8,9-tetrahydro-1H-pyrrolo[3,2-h]quinoline-2-carboxylate] the figure was 34%. On to `CCOC(=O)c1c(Cl)c2c(n1Cc1ccc(C)cc1)-c1[nH]c(=O)c(S(=O)(=O)c3ccccc3)cc1CC2` [PP076, Ethyl 7-(benzenesulfonyl)-3-chloro-1-[(4-methylphenyl)methyl]-8-oxo-4,5,8,9-tetrahydro-1H-pyrrolo[3,2-h]quinoline-2-carboxylate], for which the “AI (%) additivity index” value is on record as 244%.
